SMILES strings stand for the structures.

As usually defined, the melting point is the temperature, or range, at which the solid turns liquid.

In turn, `Cc1nc(C(F)(F)F)ccc1C(=O)NCC1(CC2CC2)CCC(S(=O)(=O)CC2CC2)CC1` (stereo not shown) [Example 3, N-(4-Cyclopropylmethanesulfonyl-1-cyclopropylmethyl-cyclohexylmethyl)-2-methyl-6-trifluoromethyl-nicotinamide] yielded a melting point of 148 to 151 °C.

The record behind these values is patent US7851638B2, “Cyclohexanesulfonyl derivatives as GLYT1 inhibitors to treat schizophrenia” (Merck Sharp & Dohme Limited, priority 2005, dated 2010).
